Results from article PMC5340827 (European Journal of Drug Metabolism and Pharmacokinetics, 2016).

Columns and labels:
[1] = Pharmacokinetics and bioavailability after single s.c. injection; details: for extent of biological availability (EBA), solution relative to suspension: (AUCsolution/AUCsuspension) × 100 %, from AUC0−∞; for presence in the plasma after injection in the form of suspension: 24 h after s.c. 6 mg/kg
[2] = cited from earlier work
[3] = system: LH, FSH and 17β-estradiol in the serum; test: Hormonal profile; type: in vivo, rat; details: s.c. 1 µg/kg; for highest estradiol concentration, suspension form: 1 h after injection

| extent of biological availability (EBA), solution relative to suspension [1] | presence in the plasma after injection in the form of suspension [1] | EBA of dalarelin relative to buserelin, form of solution ([1]; (AUCdalarelin solution/AUCbuserelin solution) × 100 %) | EBA of dalarelin relative to buserelin, form of suspension ([1]; (AUCdalarelin suspension/AUCbuserelin suspension) × 100 %) | Substance | activity / relative potency in relation to natural GnRH [2] | maximal concentration of estradiol, form of solution ([3]; solution, 30 min after injection) | time of maximal concentration of estradiol, form of solution ([3]; solution) | highest estradiol concentration, suspension form [3] | time of highest concentration of FSH, suspension form [3] |
| --- | --- | --- | --- | --- | --- | --- | --- | --- | --- |
| 13% | detectable in the plasma even after 24 h |  |  | buserelin | 20 times | 45.7 pg/mL | 30 min | 21.4 pg/mL | 4 h |
| 8% | detectable in the plasma even after 24 h | 53% | 83% | dalarelin | roughly 14 times |  | 30 min | 24.2 pg/mL | 2 h |
